From patent US11986790B2, “Method for preparing microcapsules” (LG Household & Health Care Ltd., priority 2018, dated 2024)
≈ marks a conversion by molar mass, not a printed value.

Assay: Water solubility of acrylic monomers
Assay type: physicochemical
Settings: 25 °C
Source text: Specific examples of such acrylic monomers may include one or more selected from the group consisting of dipropyleneglycol diacrylate, diethyleneglycol diacrylate, and tetraethyleneglycol dimethacrylate, as shown in the following Table 1.

## C=C(C)C(=O)OCCOCCOCCOCCOC(=O)C(=C)C [Tetraethylene glycol Dimethacrylate]
Table 1, room temperature of 25° C.
  solubility: 52 to 53 mg/mL (≈ 157 to 160 mM)
Stated in the example text for the monomer used
  solubility: 52 mg/mL (≈ 157 mM)
